In ChEMBL document CHEMBL1150721, “Hepatoprotective activity of polyphenolic compounds from Cynara scolymus against CCl4 toxicity in isolated rat hepatocytes” (1987) one finds Activity data, which are given here for six molecules.

Assay [1] concerns Hepatocyte. As to the kind of experiment: Hepatoprotective activity against carbon tetrachloride-induced hepatotoxicity in fasted Sprague-Dawley rat hepatocytes assessed as serum glutamic oxaloacetic transaminase release at 1 mg/ml administered before 10 mins of carbon tetrachloride challenge measured after 30 mins. In kind it is functional.
Assay [2] concerns Hepatocyte. Put plainly: Hepatoprotective activity against carbon tetrachloride-induced hepatotoxicity in fasted Sprague-Dawley rat hepatocytes assessed as serum glutamic oxaloacetic transaminase release at 0.1 mg/ml administered before 10 mins of carbon tetrachloride challenge measured after 30 mins. It is filed as functional.
In assay [3] the test system is Hepatocyte. Put plainly: Hepatoprotective activity against carbon tetrachloride-induced hepatotoxicity in fasted Sprague-Dawley rat hepatocytes assessed as serum glutamic pyruvate transaminase release at 0.1 mg/ml administered before 10 mins of carbon tetrachloride challenge measured after 30 mins. In kind it is functional.
Assay [4] concerns Hepatocyte. Put plainly: Hepatoprotective activity against carbon tetrachloride-induced hepatotoxicity in fasted Sprague-Dawley rat hepatocytes assessed as serum glutamate pyruvate transaminase release at 1 mg/ml administered before 10 mins of carbon tetrachloride challenge measured after 30 mins. In kind it is functional.
Assay [5] in a line: Effect on glutamate oxaloacetic transaminase activity at 1 mg/ml.
Assay [6] deals with T1, Alanine aminotransferase 1 (Homo sapiens) (UniProt P24298).
T1 sequence (whole entry): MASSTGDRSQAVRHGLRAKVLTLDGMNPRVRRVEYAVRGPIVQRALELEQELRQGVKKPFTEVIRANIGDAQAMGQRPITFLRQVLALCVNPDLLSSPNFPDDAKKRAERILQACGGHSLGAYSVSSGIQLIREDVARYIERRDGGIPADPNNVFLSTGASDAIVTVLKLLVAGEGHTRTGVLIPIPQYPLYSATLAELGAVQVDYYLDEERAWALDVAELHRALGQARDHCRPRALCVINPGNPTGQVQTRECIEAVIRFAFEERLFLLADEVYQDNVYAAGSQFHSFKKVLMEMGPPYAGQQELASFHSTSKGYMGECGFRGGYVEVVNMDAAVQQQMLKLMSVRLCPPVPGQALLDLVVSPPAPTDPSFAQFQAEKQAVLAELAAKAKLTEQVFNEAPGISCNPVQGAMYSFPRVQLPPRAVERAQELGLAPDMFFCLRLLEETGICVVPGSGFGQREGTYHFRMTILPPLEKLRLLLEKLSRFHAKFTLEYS
Put plainly: Effect on glutamic pyruvate transaminase activity at 1 mg/ml.

The subject of assay [7] is Hepatocyte. As to the kind of experiment: Hepatoprotective activity against carbon tetrachloride-induced hepatotoxicity in fasted Sprague-Dawley rat hepatocytes assessed as serum glutamic oxaloacetic transaminase release at 3 mg/ml administered before 10 mins of carbon tetrachloride challenge measured after 30 mins. It is filed as functional.
Assay [8] relates to Hepatocyte. As to the kind of experiment: Hepatoprotective activity against carbon tetrachloride-induced hepatotoxicity in fasted Sprague-Dawley rat hepatocytes assessed as serum glutamic pyruvate transaminase release at 3 mg/ml administered before 10 mins of carbon tetrachloride challenge measured after 30 mins. It is filed as functional.
Assay [9] deals with Hepatocyte. As to the kind of experiment: Hepatoprotective activity against carbon tetrachloride-induced hepatotoxicity in fasted Sprague-Dawley rat hepatocytes assessed as serum glutamic oxaloacetic transaminase release at 0.01 mg/ml administered before 10 mins of carbon tetrachloride challenge measured after 30 mins. In kind it is functional.
Assay [10] deals with Hepatocyte. As to the kind of experiment: Hepatoprotective activity against carbon tetrachloride-induced hepatotoxicity in fasted Sprague-Dawley rat hepatocytes assessed as serum glutamic pyruvate transaminase release at 0.01 mg/ml administered before 10 mins of carbon tetrachloride challenge measured after 30 mins. In kind it is functional.
The target of assay [11] is T1, Alanine aminotransferase 1 (Homo sapiens). Put plainly: Effect on glutamic pyruvate transaminase activity at 0.1 mg/ml.
Assay [12] is described as follows: Effect on glutamate oxaloacetic transaminase activity at 0.1 mg/ml.
Assay [13] is described as follows: Effect on glutamate oxaloacetic transaminase activity at 3 mg/ml.
Assay [14] deals with T1, Alanine aminotransferase 1 (Homo sapiens). Put plainly: Effect on glutamic pyruvate transaminase activity at 3 mg/ml.

In the case of `O=C(O)/C=C/c1ccc(O)c(O)c1` [CAFFEIC ACID], the Activity was found to be 18.6% in the assay on Hepatocyte [1]; 19.9% in the assay on Hepatocyte [2]; 17.5% in the assay with Hepatocyte [3]; 13.4% with Hepatocyte [4]; 123 U/L in assay [5]; 97 U/L in assay [6]. In addition, the Activity in the assay with Hepatocyte [7] was found to be 22.1%; in the assay on Hepatocyte [8], 16.7%; in the assay on Hepatocyte [9], 21%; in the assay with Hepatocyte [10], 19%.
On to `O=C(/C=C/c1ccc(O)c(O)c1)O[C@@H]1C[C@](O)(C(=O)O)C[C@@H](O)[C@H]1O` [CHLOROGENIC ACID], for which the Activity stood at 20.6% in the assay with Hepatocyte [1]; 19.4% in the assay with Hepatocyte [2]; 15.3% in the assay with Hepatocyte [3]; 17.7% with Hepatocyte [4]; 20.6% with Hepatocyte [7]; 15.9% with Hepatocyte [8]. Besides, the Activity with Hepatocyte [9] turned out to be 19.5%; in the assay on Hepatocyte [10], 16.7%.
Consider `Oc1cc(O)c2c(c1)O[C@H](c1ccc(O)c(O)c1)[C@@H](O)C2` [CIANIDANOL], for which the Activity with Hepatocyte [1] came out at 21%; in [11], 103 U/L; with Hepatocyte [2], 18.3%; in the assay on Hepatocyte [3], 14.3%; in assay [12], 127 U/L; in the assay on Hepatocyte [4] it was 17.3%. For the same molecule, the Activity in the assay with Hepatocyte [7] is given as 22.4%; in the assay on Hepatocyte [8], 20.1%; in the assay on Hepatocyte [9], 16.8%; with Hepatocyte [10], 13.5%.
With `O=C(/C=C/c1ccc(O)c(O)c1)O[C@@H]1C[C@@](OC(=O)/C=C/c2ccc(O)c(O)c2)(C(=O)O)C[C@@H](O)[C@@H]1O` [CYNARIN], the Activity is 123 U/L in [13]; 17.6% with Hepatocyte [1]; 17.9% in the assay with Hepatocyte [2]; 16.8% with Hepatocyte [3]; 13.9% in the assay on Hepatocyte [4]; 126 U/L in [5]. For the same molecule, the Activity came to 103 U/L in [6]; 16.5% with Hepatocyte [7]; 110 U/L in [14]; 13.3% with Hepatocyte [8]; 17.6% in the assay on Hepatocyte [9]; 16.3% with Hepatocyte [10].
Consider `O=c1cc(-c2ccc(O)c(O)c2)oc2cc(O[C@@H]3O[C@H](CO)[C@@H](O)[C@H](O)[C@H]3O)cc(O)c12` [GALUTEOLIN], for which the Activity came to 21.1% with Hepatocyte [1]; 20.4% with Hepatocyte [2]; 14.9% with Hepatocyte [3]; 15.9% with Hepatocyte [4]; 139 U/L in [5]; 111 U/L in assay [6]. Besides, the Activity in the assay with Hepatocyte [7] was 22.8%; with Hepatocyte [8], 20.9%; in the assay with Hepatocyte [9], 21.9%; in the assay with Hepatocyte [10], 15.9%.
For the molecule `O=C(O)[C@]1(O)C[C@@H](O)[C@@H](O)[C@H](O)C1` [QUINIC ACID], the Activity with Hepatocyte [1] was 21.2%; in the assay with Hepatocyte [2], 21.9%; in the assay on Hepatocyte [3], 18.1%; in the assay on Hepatocyte [4], 17.4%; in the assay with Hepatocyte [7] it was 21.2%; in the assay on Hepatocyte [8] it was 17%. Besides, the values for the Activity in the assay with Hepatocyte [9] and in the assay with Hepatocyte [10] were 18.4% and 15.5%, respectively.
